Source: patent publication US12692262B2, “Substituted ureas as orexin receptor agonists” (Merck Sharp & Dohme LLC, priority 2020, dated 2026)

Molecular target: T1, human OX2R (Homo sapiens, UniProt O43614)
T1 construct: expressed in transfected cells; host or cells: CHO (Chinese hamster ovary) cells grown under G418 selection
T1 sequence (O43614 1-444): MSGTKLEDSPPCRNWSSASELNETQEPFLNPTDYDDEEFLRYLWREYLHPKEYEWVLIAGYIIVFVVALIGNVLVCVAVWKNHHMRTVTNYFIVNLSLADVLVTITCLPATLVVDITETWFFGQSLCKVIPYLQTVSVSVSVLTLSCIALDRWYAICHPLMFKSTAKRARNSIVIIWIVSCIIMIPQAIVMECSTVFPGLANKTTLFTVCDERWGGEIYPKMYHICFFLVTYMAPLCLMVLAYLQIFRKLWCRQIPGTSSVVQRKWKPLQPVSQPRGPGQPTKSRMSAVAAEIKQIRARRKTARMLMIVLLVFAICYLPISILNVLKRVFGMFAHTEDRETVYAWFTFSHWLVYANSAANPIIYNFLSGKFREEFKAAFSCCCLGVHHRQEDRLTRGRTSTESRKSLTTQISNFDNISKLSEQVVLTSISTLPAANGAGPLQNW
Assay: IPOne (IP-1 accumulation) assay in CHO cells expressing human OX2R
Assay type: cell-based
Details: for EC50: CHO cells expressing human OX2R, IP-One assay, 2 h incubation, four parameter logistic fit, read-out: OX2R Potency, EC50; for % of maximum agonist effect (relative to Orexin A): percent effect vs mean max effect of a reference compound at 1 uM (100% activity vs Orexin A), human OX2R
Procedure, shortened: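 CHO cells stably expressing human OX2R, grown in Iscove's modified DMEM with 10% FBS; agonist-driven IP-1 accumulation via the Gαq pathway measured by HTRF (D2/AB-cryptate detection after lysis). EC50 taken as the inflection point of a four-parameter logistic fit.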

| EC50 | % of maximum agonist effect (relative to Orexin A) | % of maximum agonist effect (relative to Orexin A) (1 µM) | Structure (SMILES) |
| --- | --- | --- | --- |
| 17.2 nM | 101.4% |  | CCN(C(=O)N[C@@H](CCCF)C(F)F)[C@@H](c1cc(-c2cn3ncnc3c(OC)n2)c(OC)cn1)C(F)(F)F [Example 4-3, 1-ethyl-1-((S)-2,2,2-trifluoro-1-(5-methoxy-4-(8-methoxy-[1,2,4]triazolo[1,5-a]pyrazin-6-yl)pyridin-2-yl)ethyl)-3-((S)-1,1,5-trifluoropentan-2-yl)urea] |
|  |  | 99.1% | CCN(C(=O)N[C@@H](C=C(C)C)C(F)(F)F)[C@H](C)c1cccc(-c2cn3ccnc3c(OC)n2)c1 [Example 5-2, 1-ethyl-1-((R)-1-(3-(8-methoxyimidazo[1,2-a]pyrazin-6-yl)phenyl)ethyl)-3-((S)-1,1,1-trifluoro-4-methylpent-3-en-2-yl)urea] |
| 37.4 nM | 100.5% |  | C#CC(NC(=O)N(CC)[C@@H](c1cc(-c2cn3ccnc3c(OC)n2)c(OC)cn1)C(F)(F)F)C(F)(F)F (stereo partly drawn) [Example 5-3, 1-ethyl-1-((S)-2,2,2-trifluoro-1-(5-methoxy-4-(8-methoxyimidazo[1,2-a]pyrazin-6-yl)pyridin-2-yl)ethyl)-3-(1,1,1-trifluorobut-3-yn-2-yl)urea] |
| 22.6 nM | 101.0% |  | CC[C@H](CCC(F)F)NC(=O)N(CC)[C@@H](c1cc(-c2cn3cc(C)nc3c(OC)n2)c(OC)cn1)C(F)(F)F [Example 6-1, 3-((R)-6,6-difluorohexan-3-yl)-1-ethyl-1-((S)-2,2,2-trifluoro-1-(5-methoxy-4-(8-methoxy-2-methylimidazo[1,2-a]pyrazin-6-yl)pyridin-2-yl)ethyl)urea] |
| 8.1 nM | 100.1% |  | CC[C@H](CC(F)(F)F)NC(=O)N(CC)C(c1cc(-c2cn3ccnc3c(OC)n2)c(OC)cn1)C(F)(F)F (stereo partly drawn) [Example 6-2, 1-ethyl-1-(2,2,2-trifluoro-1-(5-methoxy-4-(8-methoxyimidazo[1,2-a]pyrazin-6-yl)pyridin-2-yl)ethyl)-3-((R)-1,1,1-trifluoropentan-3-yl)urea] |
| 13.6 nM | 100.2% |  | CCN(C(=O)NC(CC(F)(F)F)C1CC1)C(c1cc(-c2cn3ccnc3c(OC)n2)c(OC)cn1)C(F)(F)F (centres unmarked) [Example 6-3, 3-(1-cyclopropyl-3,3,3-trifluoropropyl)-1-ethyl-1-(2,2,2-trifluoro-1-(5-methoxy-4-(8-methoxyimidazo[1,2-a]pyrazin-6-yl)pyridin-2-yl)ethyl)urea] |
| 16 nM | 100.3% |  | CCN(C(=O)NC(CCCF)C1CC1)[C@@H](c1cc(-c2cn3cc(C)nc3c(OC)n2)c(OC)cn1)C(F)(F)F (stereo partly drawn) [Example 6-4, 3-(1-cyclopropyl-4-fluorobutyl)-1-ethyl-1-((S)-2,2,2-trifluoro-1-(5-methoxy-4-(8-methoxy-2-methylimidazo[1,2-a]pyrazin-6-yl)pyridin-2-yl)ethyl)urea] |
| 18.9 nM | 100.0% |  | CCC(/C=C/C(F)(F)F)NC(=O)N(CC)[C@@H](c1cc(-c2cn3cc(C)nc3c(OC)n2)c(OC)cn1)C(F)(F)F (stereo partly drawn) [Example 6-5, 1-ethyl-1-((S)-2,2,2-trifluoro-1-(5-methoxy-4-(8-methoxy-2-methylimidazo[1,2-a]pyrazin-6-yl)pyridin-2-yl)ethyl)-3-((E)-6,6,6-trifluorohex-4-en-3-yl)urea] |
| 71.4 nM | 101.5% |  | CCC(NC(=O)N(CC)[C@@H](c1cc(-c2cn3cc(C)nc3c(OC)n2)c(OC)cn1)C(F)(F)F)C1CC1C(F)(F)F (stereo partly drawn) [Example 6-6, 1-ethyl-1-((S)-2,2,2-trifluoro-1-(5-methoxy-4-(8-methoxy-2-methylimidazo[1,2-a]pyrazin-6-yl)pyridin-2-yl)ethyl)-3-(1-(2-(trifluoromethyl)cyclopropyl)propyl)urea] |
